Blank lines part the entries; values can stand above or below the compound they belong to.
Assays:
KRAS G12D = KRAS G12D (Homo sapiens, UniProt P01116, G12D); assay: SOS-catalyzed nucleotide exchange assay, KRAS G12D (Procedure A); type: biochemical; settings: guanine nucleotide exchange (GNE)
How it was run: (§1)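 Compounds were preincubated 60 min with a biotinylated RAS·Bodipy-GDP/Tb-streptavidin TR-FRET complex, and exchange was started with human SOS plus 3 mM GTP at RT. RAS/SOS: G12C 3 nM/40 nM, WT and G12D 1 nM/40 nM, all 60 min; G13D 1.25 nM/0 nM, 30 min. 520/495 ratio normalized to DMSO and saturating inhibitor, four-parameter fit.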

KRAS WT = KRAS WT (Homo sapiens, UniProt P01116); assay: SOS-catalyzed nucleotide exchange assay, KRAS WT (Procedure A); type: biochemical; settings: GNE
Sequence of KRAS WT (P01116 with tags, fused parts or gaps isoform P01116-2): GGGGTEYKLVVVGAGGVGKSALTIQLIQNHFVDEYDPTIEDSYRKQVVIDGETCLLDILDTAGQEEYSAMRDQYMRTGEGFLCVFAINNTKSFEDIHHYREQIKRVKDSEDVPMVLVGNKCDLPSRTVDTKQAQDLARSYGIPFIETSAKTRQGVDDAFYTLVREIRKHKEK
How it was run: as §1

KRAS G12C = KRAS G12C (Homo sapiens, UniProt P01116, C118S/C51S/C80L/G12C); assay: SOS-catalyzed nucleotide exchange assay, KRAS G12C (Procedure A); type: biochemical; settings: GNE
Sequence of KRAS G12C (P01116 with tags, fused parts or gaps isoform P01116-2 G12C/C51S/C80L/C118S): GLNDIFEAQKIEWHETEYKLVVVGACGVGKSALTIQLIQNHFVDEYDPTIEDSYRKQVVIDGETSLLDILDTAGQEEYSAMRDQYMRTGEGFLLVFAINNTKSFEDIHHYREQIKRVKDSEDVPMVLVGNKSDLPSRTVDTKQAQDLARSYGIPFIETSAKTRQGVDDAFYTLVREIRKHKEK
Excerpt: (§2) Procedure for SOS-Catalyzed Nucleotide Exchange Assay for KRAS-WT, G12C/D/V, G13D, HRAS, and NRAS (Procedure A)
(§3) Recombinant KRAS-G12C protein used in this assay has an additional triple mutation (C51S/C80L/C118S). Whereas KRAS-WT, G12D/V, G13D, HRAS and NRAS are in context of their WT protein sequence background. Specifically, the SOS-catalyzed nucleotide exchange assay utilizes a preformed TR-FRET complex containing a specific biotinylated RAS protein (KRAS-WT, G12C/V/D, G13D, HRAS, NRAS; described above) with Bodipy-GDP, and Terbium-streptavidin. Compounds are preincubated with this complex for 60 minutes. Subsequently, recombinant human SOS protein and unlabeled GTP are added to initiate the exchange reaction. Small molecule inhibitors stabilize the Bodipy-GDP complex whereas the untreated protein rapidly exchanges Bodipy-GDP for unlabeled GTP resulting in reduced TR-FRET signal.
(§4) To assemble the preformed TR-FRET complexes, each biotinylated RAS protein is diluted to 2 μM in an EDTA Buffer (20 mM HEPES pH 7.5, 50 mM sodium chloride, 10 mM EDTA, and 0.01% Tween) and incubated at room temperature for one hour. This mixture is then further diluted to 90 nM in an Assay Buffer (20 mM HEPES pH 7.5, 150 mM sodium chloride, 10 mM magnesium chloride, and 0.005% Tween) containing 15 nM of Terbium-Streptavidin (Invitrogen, catalog #PV3577) and 900 nM of Bodipy-GDP (Invitrogen, catalog #G22360) and incubated at room temperature for six hours. It should be noted that this preformed TR-FRET complex for each of the RAS protein were made ahead of time, aliquoted and stored at −80° C. until the day of the experiment.
(§5) Each test compound (10 mM stock in DMSO) is diluted in DMSO to make a final-10-point, 3-fold dilution and is acoustically dispensed into a 384-well assay plate (Corning, catalog #3820) using an Echo 550 (Labcyte). Each well of the assay plate receives 3 μL of a specific 3×RAS preformed TR-FRET complex and 3 μL of Assay Buffer and is incubated at room temperature for 60 minutes (preincubation time). Each well then receives 3 μL of 3× recombinant human SOS protein and GTP (Sigma, G8877) in Assay Buffer and is incubated at room temperature for 30 minutes (G13D), 60 minutes (KRAS WT/G12C/D, H/NRAS) or 90 minutes for G12V. The final reaction in each well of 9 μL consists of 3 mM GTP, specific Ras and SOS proteins in the following concentrations: KRAS-G12C/SOS=3 nM/40 nM, KRAS-WT and G12D/SOS=1 nM/40 nM, KRAS-G12V/SOS=1.25 nM/160 nM, KRAS-G13D/SOS=1.25 nM/0 nM, HRAS and NRAS=1.25 nM/40 nM.
(§6) The time-resolved fluorescence resonance energy transfer (TR-FRET) signal is measured on an Envision (PerkinElmer) plate reader: Excitation filter=340 nm; emission1=495 nm; emission2=520 nm; dichroic mirror=D400/D505; delay time=[…]. The signal of each well is determined as the ratio of the emission at 520 nm to that at 495 nm. Percent effect of each well is determined after normalization to control wells containing DMSO (no effect) or a saturating concentration of inhibitor (max effect). The apparent effect as a function of compound concentration is fit to a four-parameter logistic equation.
(§7) For Example No. 14, nucleotide exchange assays for KRAS G12D, WT, G12C, and G12V were performed according to Procedure B. All the other compounds were tested according to Procedure A.

KRAS G12V = KRAS G12V (Homo sapiens, UniProt P01116, G12V); assay: SOS-catalyzed nucleotide exchange assay, KRAS G12V (Procedure A); type: biochemical; settings: GNE
Sequence of KRAS G12V (P01116 with tags, fused parts or gaps isoform P01116-2 G12V): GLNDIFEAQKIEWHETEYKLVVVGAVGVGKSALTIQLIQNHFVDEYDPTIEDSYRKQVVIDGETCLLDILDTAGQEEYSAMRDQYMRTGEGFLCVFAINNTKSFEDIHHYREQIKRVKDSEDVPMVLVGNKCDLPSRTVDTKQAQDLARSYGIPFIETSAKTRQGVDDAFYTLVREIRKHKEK
How it was run: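 Biotinylated KRAS G12V was loaded with Bodipy-GDP alongside Terbium-streptavidin to form a TR-FRET complex, which was preincubated with compounds for 60 minutes in 384-well plates. Human SOS protein and unlabeled GTP were then added for 90 minutes, giving final concentrations of 1.25 nM KRAS-G12V, 160 nM SOS and 3 mM GTP. The 520/495 nm emission ratio was read on an Envision.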

KRAS G13D = KRAS G13D (Homo sapiens, UniProt P01116, G13D); assay: SOS-catalyzed nucleotide exchange assay, KRAS G13D (Procedure A); type: biochemical; settings: GNE
Sequence of KRAS G13D (P01116 with tags, fused parts or gaps isoform P01116-2 G13D): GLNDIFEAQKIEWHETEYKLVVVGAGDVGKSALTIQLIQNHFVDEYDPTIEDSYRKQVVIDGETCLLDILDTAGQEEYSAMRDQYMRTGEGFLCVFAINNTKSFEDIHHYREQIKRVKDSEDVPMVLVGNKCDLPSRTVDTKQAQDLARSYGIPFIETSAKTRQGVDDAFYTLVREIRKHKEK
Excerpt: as §2, §3, §4, §5, §6, §7

HRAS = HRAS (Homo sapiens, UniProt P01112); assay: SOS-catalyzed nucleotide exchange assay, HRAS (Procedure A); type: biochemical; settings: GNE
Sequence of HRAS (P01112 with tags, fused parts or gaps): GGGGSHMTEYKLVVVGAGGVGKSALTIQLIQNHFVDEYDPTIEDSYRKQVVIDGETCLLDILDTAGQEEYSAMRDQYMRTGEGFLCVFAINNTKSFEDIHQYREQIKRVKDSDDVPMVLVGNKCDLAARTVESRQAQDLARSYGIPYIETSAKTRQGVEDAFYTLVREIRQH
Excerpt: as §2, §3, §4, §5, §6, §7

NRAS = NRAS (Homo sapiens, UniProt P01111); assay: SOS-catalyzed nucleotide exchange assay, NRAS (Procedure A); type: biochemical; settings: GNE
Sequence of NRAS (P01111 with tags, fused parts or gaps): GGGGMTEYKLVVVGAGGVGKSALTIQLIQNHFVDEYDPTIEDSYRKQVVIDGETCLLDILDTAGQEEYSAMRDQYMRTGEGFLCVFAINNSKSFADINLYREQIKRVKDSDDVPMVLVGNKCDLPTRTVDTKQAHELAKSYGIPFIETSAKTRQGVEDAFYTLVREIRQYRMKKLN
Excerpt: as §2, §3, §4, §5, §6, §7

AsPC-1 cells = molecular target: T1, AsPC-1 cells (Homo sapiens, UniProt P01116, G12D); assay: Cellular phospho-ERK assay, AsPC-1 cells (KRAS G12D); type: cell-based; settings: 2 hours, read-out: AsPC1 pERK IC50
T1 construct: p-ERK/total ERK AlphaSureFire read-out
T1 sequence (P01116 1-188 isoform P01116-2 G12D): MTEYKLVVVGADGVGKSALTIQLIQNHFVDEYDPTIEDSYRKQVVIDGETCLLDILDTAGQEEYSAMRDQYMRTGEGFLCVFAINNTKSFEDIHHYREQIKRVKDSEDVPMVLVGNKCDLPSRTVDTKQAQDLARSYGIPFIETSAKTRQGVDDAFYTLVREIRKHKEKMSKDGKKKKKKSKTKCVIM
How it was run: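 PANC08.13 or AsPC-1 cells (homozygous KRAS G12D) were seeded overnight, then treated for 2 h at 37 °C with a 10-point 1:3 titration from 30 μM. Lysates were assayed by AlphaLISA SureFire for p-ERK and total ERK. IC50 came from a 4-parameter fit of the p-ERK/total ERK ratio.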

Sequence of KRAS G12D (P01116 with tags, fused parts or gaps isoform P01116-2 G12D): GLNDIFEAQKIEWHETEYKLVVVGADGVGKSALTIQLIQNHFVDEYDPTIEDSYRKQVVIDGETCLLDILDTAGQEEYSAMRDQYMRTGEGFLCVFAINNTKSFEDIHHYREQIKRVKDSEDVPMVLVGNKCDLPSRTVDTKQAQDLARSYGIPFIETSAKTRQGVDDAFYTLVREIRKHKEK

Structure (SMILES): Cc1cc2[nH]ncc2c(-c2nccc3c2sc2nc(OC[C@H]4C[C@H](S(C)(=N)=O)C4)nc(N4C[C@H]5CC[C@@H](C4)N5)c23)c1C(F)(F)F (stereo partly drawn) [Ex-35, (1S)-((1R,3S)-3-(((4-((1R,5S)-3,8-diazabicyclo[3.2.1]octan-3-yl)-8-(6-methyl-5-(trifluoromethyl)-1H-indazol-4-yl)pyrido[4′,3′:4,5]thieno[2,3-d]pyrimidin-2-yl)oxy)methyl)cyclobutyl)(imino) (methyl)-λ^6-sulfanone]
IC50 (KRAS G12D): 1430 nM
IC50 (KRAS WT): > 11100 nM
IC50 (KRAS G12C): > 11100 nM
IC50 (KRAS G12V): > 11100 nM
IC50 (KRAS G13D): > 11100 nM
IC50 (HRAS): > 11100 nM
IC50 (NRAS): > 11100 nM
IC50 (AsPC-1 cells): > 30000 nM

Structure (SMILES): Cc1cc2[nH]ncc2c(-c2nncc3c2sc2nc(OC[C@@]45CCCN4C[C@H](F)C5)nc(N4C[C@H]5CC[C@@H](C4)N5)c23)c1C(F)(F)F [Ex-77, 4-((1R,5S)-3,8-diazabicyclo[3.2.1]octan-3-yl)-2-(((2R,7aS)-2-fluorotetrahydro-1H-pyrrolizin-7a(5H)-yl)methoxy)-8-(6-methyl-5-(trifluoromethyl)-1H-indazol-4-yl)pyrimido[5′,4′:4,5]thieno[2,3-d]pyridazine]
IC50 (KRAS G12D): 17.1 nM
IC50 (KRAS WT): 4840 nM
IC50 (KRAS G12C): 334 nM
IC50 (KRAS G12V): 2320 nM
IC50 (KRAS G13D): 374 nM
IC50 (HRAS): > 11100 nM
IC50 (NRAS): > 11100 nM
IC50 (AsPC-1 cells): 726 nM

Structure (SMILES): Cc1cc2[nH]ncc2c(-c2nccc3c2sc2nc(OCC4(C#N)CCCO4)nc(N4C[C@H]5CC[C@@H](C4)N5)c23)c1C(F)(F)F (stereo partly drawn) [Ex-34, 2-(((4-((1R,5S)-3,8-diazabicyclo[3.2.1]octan-3-yl)-8-(6-methyl-5-(trifluoromethyl)-1H-indazol-4-yl)pyrido[4′,3′:4,5]thieno[2,3-d]pyrimidin-2-yl)oxy)methyl)tetrahydrofuran-2-carbonitrile]
IC50 (KRAS G12D): 6700 nM
IC50 (KRAS WT): > 11100 nM
IC50 (KRAS G12C): > 11100 nM
IC50 (KRAS G12V): > 11100 nM
IC50 (KRAS G13D): > 11100 nM
IC50 (HRAS): > 11100 nM
IC50 (NRAS): > 11100 nM
IC50 (AsPC-1 cells): > 30000 nM

Structure (SMILES): Cc1cc2[nH]ncc2c(-c2nccc3c2sc2nc(OC[C@@]45CCCN4C[C@H](F)C5)nc(N4C[C@H]5CC[C@@](C)(C4)N5)c23)c1C(F)(F)F [Ex-76, 2-(((2R,7aS)-2-fluorotetrahydro-1H-pyrrolizin-7a(5H)-yl)methoxy)-8-(6-methyl-5-(trifluoromethyl)-1H-indazol-4-yl)-4-((1S,5R)-1-methyl-3,8-diazabicyclo[3.2.1]octan-3-yl)pyrido[4′,3′:4,5]thieno[2,3-d]pyrimidine]
IC50 (KRAS G12D): 26.3 nM
IC50 (KRAS WT): 8270 nM
IC50 (KRAS G12C): 1040 nM
IC50 (KRAS G12V): 6350 nM
IC50 (KRAS G13D): 1810 nM
IC50 (HRAS): > 11100 nM
IC50 (NRAS): > 11100 nM
IC50 (AsPC-1 cells): 397 nM

Structure (SMILES): Cc1cc2[nH]ncc2c(-c2nccc3c2sc2nc(OC[C@@]45CCCN4C[C@H](F)C5)nc(N4CC5CC(C4)N5)c23)c1C(F)(F)F [Ex-67, 4-(3,6-diazabicyclo[3.1.1]heptan-3-yl)-2-(((2R,7aS)-2-fluorotetrahydro-1H-pyrrolizin-7a(5H)-yl)methoxy)-8-(6-methyl-5-(trifluoromethyl)-1H-indazol-4-yl)pyrido[4′,3′:4,5]thieno[2,3-d]pyrimidine]
IC50 (KRAS G12D): 13.1 nM
IC50 (KRAS WT): 856 nM
IC50 (KRAS G12C): 265 nM
IC50 (KRAS G12V): 672 nM
IC50 (KRAS G13D): 323 nM
IC50 (HRAS): > 11100 nM
IC50 (NRAS): > 11100 nM
IC50 (AsPC-1 cells): 699 nM

Next, values leading:

IC50 (KRAS G12D): 9.25 nM
IC50 (KRAS WT): 1650 nM
IC50 (KRAS G12C): 182 nM
IC50 (KRAS G12V): 1370 nM
IC50 (KRAS G13D): 265 nM
IC50 (HRAS): > 11100 nM
IC50 (NRAS): > 11100 nM
IC50 (AsPC-1 cells): 217 nM
Structure (SMILES): Fc1ccc2cc3[nH]ncc3c(-c3nccc4c3sc3nc(OC[C@@]56CCCN5C[C@H](F)C6)nc(N5C[C@H]6CC[C@@H](C5)N6)c34)c2c1Cl [Ex-59, 4-((1R,5S)-3,8-diazabicyclo[3.2.1]octan-3-yl)-8-(5-chloro-6-fluoro-1H-benzo[f]indazol-4-yl)-2-(((2R,7aS)-2-fluorotetrahydro-1H-pyrrolizin-7a(5H)-yl)methoxy)pyrido[4′,3′:4,5]thi-eno[2,3-d]pyrimidine]

IC50 (KRAS G12D): 5230 nM
IC50 (KRAS WT): > 11100 nM
IC50 (KRAS G12C): > 11100 nM
IC50 (KRAS G12V): > 11100 nM
IC50 (KRAS G13D): > 11100 nM
IC50 (HRAS): > 11100 nM
IC50 (NRAS): > 11100 nM
IC50 (AsPC-1 cells): 18400 nM
Structure (SMILES): OC1C2CCCC1(COc1nc(N3C[C@H]4CC[C@@H](C3)N4)c3c(n1)sc1c(-c4c(C5CC5)c(Cl)cc5[nH]ncc45)nccc13)CC2 (stereo partly drawn) [Ex-24, 1-(((4-((1R,5S)-3,8-diazabicy-clo[3.2.1]octan-3-yl)-8-(6-chloro-5-cyclopropyl-1H-indazol-4-yl)pyri-do[4′,3′:4,5]thi-eno[2,3-d]pyrimidin-2-yl)oxy)methyl)bi-cyclo[3.2.1]oc-tan-8-ol]

IC50 (KRAS G12D): 1.31 nM
IC50 (KRAS WT): 148 nM
IC50 (KRAS G12C): 73.9 nM
IC50 (KRAS G12V): 105 nM
IC50 (KRAS G13D): 42.5 nM
IC50 (HRAS): > 11100 nM
IC50 (NRAS): > 11100 nM
IC50 (AsPC-1 cells): 25 nM
Structure (SMILES): C#Cc1cccc2cc3[nH]ncc3c(-c3nccc4c3sc3nc(OC[C@@]56CCCN5C[C@H](F)C6)nc(N5C[C@H]6CC[C@@H](C5)N6)c34)c12 [Ex-55, 4-((1R,5S)-3,8-diazabicyclo[3.2.1]octan-3-yl)-8-(5-ethynyl-1H-benzo[f]indazol-4-yl)-2-(((2R,7aS)-2-fluorotetrahydro-1H-pyrrolizin-7a(5H)-yl)methoxy)pyrido[4′,3′:4,5]thieno[2,3-d]pyrimidine]

IC50 (KRAS G12D): 1.92 nM
IC50 (KRAS WT): 80.7 nM
IC50 (KRAS G12C): 22.7 nM
IC50 (KRAS G12V): 62.7 nM
IC50 (KRAS G13D): 14.8 nM
IC50 (HRAS): > 11100 nM
IC50 (NRAS): > 11100 nM
IC50 (AsPC-1 cells): 31.4 nM
Structure (SMILES): C#Cc1csc2cc3[nH]ncc3c(-c3nccc4c3sc3nc(OC[C@@]56CCCN5C[C@H](F)C6)nc(N5C[C@H]6CC[C@@H](C5)N6)c34)c12 [Ex-54, 4-((1R,5S)-3,8-diazabicyclo[3.2.1]octan-3-yl)-8-(5-ethynyl-1H-thieno[3,2-f]indazol-4-yl)-2-(((2R,7aS)-2-fluorotetrahydro-1H-pyrrolizin-7a(5H)-yl)methoxy)pyrido[4′,3′:4,5]thieno[2,3-d]pyrimidine]
